“Also recorded” adds a separate entry of the source.
Experiments:
[1] = tested on: 3T3-L1-luc fibroblasts; experiment: Cell-based fatty acid uptake assay (bioluminescence), undifferentiated fibroblasts; conditions: 20 μM FFA-luc, 30 min
Method: (§1) Luciferase expressing cellular model (3T3-L1-Luc Cells): 3T3-L1 fibroblasts (ATCC) were stably transfected with the pGL4.51[luc2/CMV/Neo] vector (Promega). Clones with the highest level of luciferase expression were isolated and expanded.
Cell culture and treatment: 3T3-L1-luc fibroblasts were grown in DMEM containing 10% fetal bovine serum with 2 mM L-glutamine and 1% penicillin/streptomycin (DMEM/FBS). A cell differentiation protocol was followed as previously described (Baldini et al., Cloning of a Rab3 isotype predominantly expressed in adipocytes. Proc Natl Acad Sci USA 89, 5049 (Jun. 1, 1992); Stahl et al., Insulin causes fatty acid transport protein translocation and enhanced fatty acid uptake in adipocytes. Dev Cell 2, 477 (2002)). […]
Cell-based fatty acid uptake assays: 3T3-L1-luc adipocytes or fibroblasts were seeded into black-wall/clear-bottom-96-well plates (Costar) and treated with 100 μl of a fatty acid uptake buffer consisting of 0.1% BSA in Hank's balanced salt solution (HBSS) in addition to 2-100 μM of the compound. Plates were read immediately and luminescent images were acquired with a 5-minute exposure time back to back for 60 minutes. […]

[2] = tested on: L2G85 mice; conditions: mouse, in vivo
Method: (§2) To monitor uptake of FFA-luc by internal organs, FFA-luc was bound to the physiological carrier of fatty acids in the serum, i.e. albumin. As a control, animals were injected with an albumin luciferin mix.
(§3) Animal models: Transgenic mice ubiquitously expressing luciferase under control of the actin promoter were used.
(§4) Imaging equipment and software: All luminescent/photographic images were captured with the IVIS Spectrum (Caliper Life Sciences). Total flux (photons/sec) of regions of interest were calculated with the IVIS Living Image software. CT data was acquired with the Quantum FX μCT (Caliper Life Sciences).
(§5) Intravenous injection: Restrained mice received 100 μl volume tail vein injections of 20 μM FFA-luc or FFA-S-luc (0.0014 mg) bound to 0.1% bovine serum albumin (BSA) in phosphate buffered saline (PBS). Mice were immediately anesthetized and luminescent images with a 1-minute exposure were acquired.

[3] = tested on: 3T3-L1-luc adipocytes; experiment: Cell-based fatty acid uptake assay (bioluminescence), adipocytes; conditions: BSA-bound, 0-100 μM (comparison at 20 μM, 30 min)
Method: as §1
Cell culture and treatment: 3T3-L1-luc fibroblasts were grown in DMEM containing 10% fetal bovine serum with 2 mM L-glutamine and 1% penicillin/streptomycin (DMEM/FBS). […] Differentiated cells were used in experiments on days 8-12 of differentiation.
Cell-based fatty acid uptake assays: 3T3-L1-luc adipocytes or fibroblasts were seeded into black-wall/clear-bottom-96-well plates (Costar) and treated with 100 μl of a fatty acid uptake buffer consisting of 0.1% BSA in Hank's balanced salt solution (HBSS) in addition to 2-100 μM of the compound. Plates were read immediately and luminescent images were acquired with a 5-minute exposure time back to back for 60 minutes. All cell-based assays utilized the same kinetic acquisition settings.

[4] = tested on: L2G85 mice; experiment: BAT imaging after intraperitoneal injection; type: in vivo; conditions: for signal from BAT (intact and excised) after intraperitoneal injection: i.p., 0.1% BSA in PBS, 30 min
Method: Intraperitoneal injection: Anesthetized mice received a 100 μl volume intraperitoneal injection of 200 μM FFA-luc or FFA-S-luc (0.014 mg) bound to 0.1% BSA in PBS immediately prior to imaging. Luminescent images were acquired with a 3-minute exposure back to back for 30-minutes.
BAT imaging: Anesthetized mice received 100 μl volume intraperitoneal injection of 200 μM FFA-luc (0.014 mg) immediately prior to imaging. Luminescent images were acquired with a 3-minute exposure back to back for 30-minutes. For BAT activation imaging, mice received intraperitoneal injections of the β-adrenergic stimulator CL316,243 at 1 mg/kg 20 minutes prior to the FFA-luc injection.

[5] = tested on: L2G85 mice; experiment: Intestinal uptake after oral gavage, bioluminescence imaging; type: in vivo; conditions: for bioluminescent signal in the live animal after oral gavage: luciferase-expressing mice
Method: To translate the imaging technique described above to in vivo systems, L2G85 mice were utilized. L2G85 mice express luciferase throughout their bodies. Initial experiments focused on detection of intestinal FFA uptake using oral gavages of the FFA-luc compound. […] This is consistent with known fatty acid uptake localization and kinetics.
Gavage of FFA-luc and FFA-S-luc: Anesthetized mice received a 50 μl volume gavage of 300 μM FFA-luc or FFA-S-luc (0.01 mg) in a vehicle of 1:1 PEG 400 and propylene glycol. Mice were awake for 5 minutes post-gavage to stimulate peristalsis before they were re-anesthetized for imaging. Mice were under constant isoflurane administration in the IVIS Spectrum In Vivo Imager and luminescent images were acquired with a 5-minute exposure back to back for 60 minutes.
CT scans: Mice received a 100 μl volume gavage of 80 mg barium sulfate. After one hour, mice received a second barium sulfate gavage, immediately followed by a 50 μl volume gavage of 300 μM FFA-luc (0.01 mg) in a vehicle of 1:1 PEG 400 and propylene glycol. Mice were placed in a Mouse Imaging Shuttle Adaptor (Caliper Life Sciences) and luminescent images were acquired with a 5-minute exposure back to back for 60 minutes. Mice were then transferred to the Quantum FX μCT for CT imaging without disruption of position. Co-registration of luminescent and CT images were performed with Living Image software.

[6] = tested on: FFA-luc uptake by 3T3-L1 adipocytes; experiment: FFA-SS-Luc competition assay; type: cell-based
Method: FFA-SS-Luc competition assay: 3T3-L1-luc adipocytes were seeded into black-wall/clear-bottom-96-well plates (Costar) and treated with 100 μl fatty acid uptake buffer including 20 μM FFA-luc and a titration of 0-2 mM oleate or methyl-oleate immediately prior to imaging.

[7] = tested on: L2G85 mice; experiment: Uptake after intravenous injection (albumin-bound), bioluminescence imaging; conditions: i.v., bound to/mixed with albumin
Method: as §2, §3, §4, §5

[8] = tested on: FFA-luc uptake by 3T3-L1-luc adipocytes; experiment: Insulin-mediated uptake of FFA-luc; type: cell-based; conditions: 20 μM FFA-luc
Method: Insulin-mediated uptake of FFA-luc: 3T3-L1-luc adipocytes were seeded into black-wall/clear-bottom-96-well plates (Costar). One group of cells was serum starved in DMEM for 5 hours followed by the addition of […] fatty acid uptake buffer with 20 μM FFA-luc immediately prior to imaging. A second group of cells was treated with DMEM/fetal bovine serum (FBS) for 5 hours followed by the addition of 100 μl fatty acid uptake buffer with 20 μM FFA-luc and 1 ug/mL insulin immediately prior to imaging.

**Q.** What does the source list for `O=C(O)CCCCCCCCCCCCCCCSSCCCOC(=O)Oc1ccc2nc(C3=N[C@@H](C(=O)O)CS3)sc2c1` [FFA-luc, (S)-2-(6-((3-((15-carboxypentadecyl)disulfanyl)propoxy)carbonyloxy)benzo[d]thiazol-2-yl)-4,5-dihydrothiazole-4-carboxylic acid]?
**A.** uptake kinetics by undifferentiated fibroblast-like 3T3 L1 cells versus adipocytes [1]: significantly lower; uptake by excised organs after tail vein injection [2]: taken up by several organs; light production of removed interscapular brown adipose tissue after injection ([2]; iv): robust light production; photon emission from isolated heart after intravenous injection ([2]; iv): high signal; photon emission from isolated liver after intravenous injection ([2]; iv): low signal; uptake by luciferase-expressing 3T3 L1 adipocytes (light signal / uptake rate) [3]: robust, dose-dependent signal; signal from BAT (intact and excised) after intraperitoneal injection [4]: robust light signal; signal from small intestine, excised GI tract after oral gavage ([5]; ex vivo, small intestine / duodenum): robust signal; also recorded: strongest signal was generated by the proximal duodenum; signal from stomach and colon, excised GI tract after oral gavage ([5]; ex vivo, stomach and colon): negative; bioluminescent signal in the live animal after oral gavage [5]: distinct signal emanating from an area consistent with the small intestine; also recorded: abdominal signal

**Q.** Which “uptake by luciferase-expressing 3T3 L1 adipocytes (light signal / uptake rate)” value (“uptake … (light signal / uptake rate)” below) ([3]; listed as methyl ester of the FFA-luc) does the source give for `COC(=O)CCCCCCCCCCCCCCCSSCCCOC(=O)Oc1ccc2nc(C3=N[C@@H](C(=O)O)CS3)sc2c1` [Me-FFA-luc, (S)-2-(6-((3-((16-methoxy-16-oxohexadecyl)disulfanyl)propoxy)carbonyloxy)benzo[d]thiazol-2-yl)-4,5-dihydrothiazole-4-carboxylic acid] here?
**A.** slower, non-saturable uptake

**Q.** And the “uptake … (light signal / uptake rate)” value ([3]; listed as methyl-FFA-luc)?
**A.** significantly lower uptake rates

**Q.** With `CCCCCCCC/C=C\CCCCCCCC(=O)O` [oleate] as the compound, how does the IC50 ([6]; Mus musculus, 3T3-L1, read-out: IC50, inhibition of uptake of FFA-luc by 3T3-L1 adipocytes) read?
**A.** 17 µM

**Q.** With `O=C(O)CCCCCCCCCCCCCCCSCCCOC(=O)Oc1ccc2nc(C3=N[C@@H](C(=O)O)CS3)sc2c1` [FFA-S-luc, (S)-2-(6-((3-(15-carboxypentadecylthio)propoxy)carbonyloxy)benzo[d]thiazol-2-yl)-4,5-dihydrothiazole-4-carboxylic acid] as the compound, how does the “signal from BAT (intact and excised) after intraperitoneal injection” value [4] read?
**A.** little or no signal

**Q.** And the “bioluminescent signal in the live animal after oral gavage” value [5]?
**A.** weak and diffuse signal

**Q.** For `C[C@H](Cc1ccc2c(c1)OC(C(=O)[O-])(C(=O)[O-])O2)NC[C@H](O)c1cccc(Cl)c1.[Na+].[Na+]` [CL316,243, reference compound], which “effect on compound 1 uptake by BAT” value ([4]; CL316,243 1 mg/kg i.p.) is on record?
**A.** highly reproducible and significant increase

**Q.** Which “competition with FFA-luc uptake by adipocytes” value ([6]; 20 μM FFA-luc, excess competitor (0-2 mM titration)) does the source give for `CCCCCCCC/C=C\CCCCCCCC(=O)OC` [methyl-oleate] here?
**A.** did not compete and not

**Q.** For `O=C(O)[C@H]1CSC(c2nc3ccc(O)cc3s2)=N1` [luciferin, reference compound], which “bioluminescent signal in the live animal after intravenous injection” value [7] is on record?
**A.** very rapid, bright, and delocalized signal

**Q.** And the “uptake … (light signal / uptake rate)” value [3]?
**A.** significantly lower uptake rates

**Q.** With insulin as the compound, how does the “effect on FFA-luc uptake by adipocytes” value [8] read?
**A.** stimulatory effect
